The values below come from patent US11648254B2 (Kumquat Biosciences Inc., priority 2021, dated 2023).

Series [1] can be described thus: In vitro plasma protein binding (PPB). It counts as in vitro ADME. The conditions noted are these: percentage of free/unbound compound.
For series [2], the system named is NCI-H1975 cells (EGFR T790M L858R). The series can be described thus: EGFR-SOS cellular inhibition assay (CellTiter-Glo, 3D). The following applies: Homo sapiens. It counts as cell-based. For orientation: ATP-based viability assays read luminescence as a measure of living cells.
Series [3] deals with SOS1 (Homo sapiens (Human), UniProt Q07889). Description: Ras-SOS interaction assay (HTRF). It counts as biochemical. (Time-resolved FRET reads energy transfer from a long-lived donor to a nearby acceptor.)
Sequence of SOS1 (Q07889 564-1049): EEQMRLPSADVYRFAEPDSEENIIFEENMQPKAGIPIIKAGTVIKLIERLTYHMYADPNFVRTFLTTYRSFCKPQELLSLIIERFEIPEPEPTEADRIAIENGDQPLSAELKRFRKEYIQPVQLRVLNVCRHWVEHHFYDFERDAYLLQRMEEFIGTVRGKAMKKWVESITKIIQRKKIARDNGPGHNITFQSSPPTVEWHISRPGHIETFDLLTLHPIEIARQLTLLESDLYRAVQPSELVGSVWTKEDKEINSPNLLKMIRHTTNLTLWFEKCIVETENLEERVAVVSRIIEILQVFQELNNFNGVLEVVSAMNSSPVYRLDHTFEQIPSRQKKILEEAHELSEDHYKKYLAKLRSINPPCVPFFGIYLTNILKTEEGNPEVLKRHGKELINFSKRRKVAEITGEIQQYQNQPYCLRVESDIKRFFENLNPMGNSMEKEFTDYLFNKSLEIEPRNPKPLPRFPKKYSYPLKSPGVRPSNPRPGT
Series [4] is described as follows: Metabolic (microsomal) stability assay. The following applies: mouse liver microsomes, T1/2; read-out: DMPK-invitro-metabolic Stability (Mouse T1/2). The series is classed as in vitro ADME. The text has this:
Example 12: Metabolic (Microsomal) Stability Assay

Series [5] deals with MIA PaCa-2 cells (K-Ras G12C). Description: Ras-SOS cellular growth inhibition assay (CellTiter-Glo, 3D). It counts as cell-based. The following applies: Homo sapiens. Summed up:
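MIA PaCa-2 cells grown in ultra-low-attachment plates (3D) in DMEM/Ham's F12 with 10% FCS and 2.5% horse serum, treated the day after seeding with a 9-point 3-fold compound series for about 5 days. Viability by CellTiter-Glo luminescence; IC50 from four-parameter fit.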

Where [6] appears, read: 120 h, NCI-H1975, 3D proliferation, about 5 days, read-out: Bio-Cell-Prolif-3D (H1975 IC50).
Setting [7] is: K-RasG13D utilized, read-out: IC50 inhibition of SOS.
The mark [8] stands for this setting: MIA PaCa-2, 120 h, MIA PaCa-2, 3D proliferation, about 5 days, read-out: Bio-Cell-Prolif-3D (MiaPaca2 IC50).
[9] abbreviates: NCI-H1975, EGFR T790M L858R, read-out: IC50 in inhibiting growth of NCI-H1975 cell line.
[10] abbreviates: K-RasG13D, read-out: IC50 value against SOS1.
[11] abbreviates: MIA PaCa-2, MIA PaCa-2, read-out: IC50 in inhibiting MIA PaCa-2 cell growth.

The structures appear in SMILES notation. Read-outs that look alike come from different tables or passages of the source. A value given as a limit tells only on which side of the number the result lay.

What is called IC50 is the concentration at which inhibition is half-maximal.

For the compound `Cc1nc(N[C@H](C)c2cccc(C(F)(F)F)c2F)c2cc(C3(C#N)CC3)c(Cl)nc2n1` [Compound 300, (R)-1-(7-chloro-4-((1-(2-fluoro-3-(trifluoromethyl)phenyl)ethyl)amino)-2-methylpyrido[2,3-d]pyrimidin-6-yl)cyclopropane-1-carbonitrile], in series [1], the “DMPK-invitro-PPB (Mouse Unbound) [%]” value stood at 0.47%. Moreover, the IC50 in series [2] (setting [6]) is not above 1000 nM; in series [3] (setting [7]), less than 100 nM; in series [5] (setting [8]) it was not above 1000 nM. For the same compound, the half-life in series [4] is 70.6 min.

For the compound `COc1nc2nc(C)nc(N[C@H](C)c3cccc(C(F)(F)C(C)(C)O)c3F)c2cc1C1(C#N)CC1` [Compound 207, (R)-1-(4-((1-(3-(1,1-difluoro-2-hydroxy-2-methylpropyl)-2-fluorophenyl)ethyl)amino)-7-methoxy-2-methylpyrido[2,3-d]pyrimidin-6-yl)cyclopropane-1-carbonitrile], the “DMPK-invitro-PPB (Mouse Unbound) [%]” value in series [1] is on record as 0.06%. In addition, the concentration for half-maximal inhibition (IC50) in series [2] (setting [6]) was not above 1000 nM; in series [2] (setting [9]), less than 500 nM; in series [3] (setting [7]), less than 100 nM; in series [3] (setting [10]) it was less than 50 nM; in series [5] (setting [8]), not above 1000 nM. Besides, in series [4], the half-life was more than 200 min.

Turning to `C[C@@H](Nc1ncnc2nc(Cl)c(C3(C#N)CC3)cc12)c1cccc(C(F)(F)C(C)(C)O)c1` [Compound 363, (R)-1-(7-chloro-4-((1-(3-(1,1-difluoro-2-hydroxy-2-methylpropyl)phenyl)ethyl)amino)pyrido [2,3-d]pyrimidin-6-yl)cyclopropane-1-carbonitrile], the IC50 is not above 1000 nM in series [2] (setting [6]); less than 500 nM in series [2] (setting [9]); less than 100 nM in series [3] (setting [7]); less than 50 nM in series [3] (setting [10]); not above 1000 nM in series [5] (setting [8]); less than 500 nM in series [5] (setting [11]). Besides, in series [4], the half-life was more than 200 min.

Consider `C[C@@H](Nc1ncnc2nc(Cl)c(C3(C#N)CC3)cc12)c1cccc(C(F)(F)C(C)(C)O)c1F` [Compound 361, (R)-1-(7-chloro-4-((1-(3-(1,1-difluoro-2-hydroxy-2-methylpropyl)-2-fluorophenyl)ethyl)amino)pyrido[2,3-d]pyrimidin-6-yl)cyclopropane-1-carbonitrile], for which the 50% inhibitory concentration (IC50) was not above 1000 nM in series [2] (setting [6]); less than 500 nM in series [2] (setting [9]); less than 100 nM in series [3] (setting [7]); less than 50 nM in series [3] (setting [10]); 1000 to 10000 nM in series [5] (setting [8]). Also, the half-life in series [4] was more than 200 min.

For `C[C@@H](Nc1ncnc2nc(Cl)c(C3(C#N)CC3)cc12)c1cccc(C(F)(F)CO)c1F` [Compound 362, (R)-1-(7-chloro-4-((1-(3-(1,1-difluoro-2-hydroxyethyl)-2-fluorophenyl)ethyl)amino)pyrido[2,3-d]pyrimidin-6-yl)cyclopropane-1-carbonitrile], the half-maximal inhibitory concentration (IC50) was not above 1000 nM in series [2] (setting [6]); less than 500 nM in series [2] (setting [9]); less than 100 nM in series [3] (setting [7]); less than 50 nM in series [3] (setting [10]); 1000 to 10000 nM in series [5] (setting [8]). The half-life in series [4] was 49 min.

As to `C[C@@H](Nc1ncnc2nc(Cl)c(C3(C#N)CC3)cc12)c1cccc(C(F)(F)[C@@H](C)O)c1` [Compound 214, 1-(7-chloro-4-(((R)-1-(3-((R)-1,1-difluoro-2-hydroxypropyl)phenyl)ethyl)amino)pyrido[2,3-d]pyrimidin-6-yl) cyclopropane-1-carbonitrile], the half-maximal inhibitory concentration (IC50) in series [2] (setting [6]) is not above 1000 nM; in series [2] (setting [9]) it was less than 500 nM; in series [3] (setting [7]) it was less than 100 nM; in series [3] (setting [10]), less than 50 nM; in series [5] (setting [8]), not above 1000 nM; in series [5] (setting [11]), less than 500 nM. For the same compound, in series [4], the half-life was more than 200 min.

As to `Cc1nc(N[C@H](C)c2cccc(C(F)F)c2F)c2cc(C3(C#N)CC3)c(Cl)nc2n1` [Compound 352, (R)-1-(7-chloro-4-((1-(3-(difluoromethyl)-2-fluorophenyl)ethyl)amino)-2-methylpyrido[2,3-d]pyrimidin-6-yl)cyclopropane-1-carbonitrile], the half-maximal inhibitory concentration (IC50) in series [2] (setting [6]) was not above 1000 nM; in series [2] (setting [9]) it was less than 500 nM; in series [3] (setting [7]), less than 100 nM; in series [3] (setting [10]) it was less than 50 nM; in series [5] (setting [8]) it was not above 1000 nM; in series [5] (setting [11]), less than 500 nM. Further, the half-life in series [4] stood at 31 min.

Consider `C[C@@H](Nc1ncnc2nc(O[C@@H]3CCOC3)c(C3(C#N)CC3)cc12)c1cccc(C(F)F)c1F` [Compound 409, 1-(4-(((R)-1-(3-(difluoromethyl)-2-fluorophenyl)ethyl)amino)-7-(((R)-tetrahydrofuran-3-yl)oxy)pyrido[2,3-d]pyrimidin-6-yl)cyclopropane-1-carbonitrile], for which the IC50 in series [2] (setting [6]) was not above 1000 nM; in series [2] (setting [9]) it was less than 500 nM; in series [3] (setting [7]), 100 to 1000 nM; in series [5] (setting [8]), not above 1000 nM. Also, the half-life in series [4] was 5.6 min.

As to `Cc1nc(N[C@H](C)c2cccc(C(F)(F)CO)c2F)c2cc(C3(C#N)CC3)c(Cl)nc2n1` [Compound 195, (R)-1-(7-chloro-4-((1-(3-(1,1-difluoro-2-hydroxyethyl)-2-fluorophenyl)ethyl)amino)-2-methylpyrido[2,3-d]pyrimidin-6-yl)cyclopropane-1-carbonitrile], the concentration for half-maximal inhibition (IC50) was not above 1000 nM in series [2] (setting [6]); less than 100 nM in series [3] (setting [7]); less than 50 nM in series [3] (setting [10]); not above 1000 nM in series [5] (setting [8]); less than 500 nM in series [5] (setting [11]). Also, in series [4], the half-life came to 21.1 min.

`C[C@@H](Nc1ncnc2nc(OC3COC3)c(C3(C#N)CC3)cc12)c1cccc(C(F)F)c1F` [Compound 400, (R)-1-(4-((1-(3-(difluoromethyl)-2-fluorophenyl)ethyl)amino)-7-(oxetan-3-yloxy)pyrido[2,3-d]pyrimidin-6-yl)cyclopropane-1-carbonitrile]: the IC50 is not above 1000 nM in series [2] (setting [6]), 100 to 1000 nM in series [3] (setting [7]), not above 1000 nM in series [5] (setting [8]) and less than 500 nM in series [5] (setting [11]). Further, the half-life in series [4] worked out at 29.4 min.

Turning to `Cc1nc(N[C@H](C)c2cccc(C(F)(F)C(C)(C)O)c2)c2cc(C3(C#N)CC3)c(Cl)nc2n1` [Compound 193, (R)-1-(7-chloro-4-((1-(3-(1,1-difluoro-2-hydroxy-2-methylpropyl)phenyl)ethyl)amino)-2-methylpyrido[2,3-d]pyrimidin-6-yl)cyclopropane-1-carbonitrile], the IC50 was not above 1000 nM in series [2] (setting [6]); less than 500 nM in series [2] (setting [9]); less than 100 nM in series [3] (setting [7]); less than 50 nM in series [3] (setting [10]); not above 1000 nM in series [5] (setting [8]); less than 500 nM in series [5] (setting [11]). For the same compound, the half-life in series [4] is more than 200 min.

For the compound `Cc1nc(N[C@H](C)c2cccc(C(F)(F)[C@@H](C)O)c2)c2cc(C3(C#N)CC3)c(Cl)nc2n1` [Compound 219, 1-(7-chloro-4-(((R)-1-(3-((R)-1,1-difluoro-2-hydroxypropyl)phenyl)ethyl)amino)-2-methylpyrido[2,3-d]pyrimidin-6-yl)cyclopropane-1-carbonitrile], the half-inhibitory concentration (IC50) in series [2] (setting [6]) was not above 1000 nM; in series [2] (setting [9]), less than 500 nM; in series [3] (setting [7]), less than 100 nM; in series [3] (setting [10]) it was less than 50 nM; in series [5] (setting [8]), not above 1000 nM; in series [5] (setting [11]) it was less than 500 nM. Besides, in series [4], the half-life is 99 min.

As for `C[C@@H](Nc1ncnc2nc(Cl)c(C3(C#N)CC3)cc12)c1cccc(C(F)(F)[C@@H](C)O)c1F` [Compound 365, 1-(7-chloro-4-(((R)-1-(3-((R)-1,1-difluoro-2-hydroxypropyl)-2-fluorophenyl)ethyl)amino)pyrido [2,3-d]pyrimidin-6-yl)cyclopropane-1-carbonitrile], the IC50 was not above 1000 nM in series [2] (setting [6]); less than 500 nM in series [2] (setting [9]); less than 100 nM in series [3] (setting [7]); less than 50 nM in series [3] (setting [10]); not above 1000 nM in series [5] (setting [8]). Also, in series [4], the half-life was more than 200 min.

With `Cc1nc(N[C@H](C)c2cccc(C(F)F)c2F)c2cc(C3(C#N)CC3)c(OC3COC3)nc2n1` [Compound 402, (R)-1-(4-((1-(3-(difluoromethyl)-2-fluorophenyl)ethyl)amino)-2-methyl-7-(oxetan-3-yloxy)pyrido[2,3-d]pyrimidin-6-yl)cyclopropane-1-carbonitrile], the IC50 in series [2] (setting [6]) is not above 1000 nM; in series [3] (setting [7]), less than 100 nM; in series [5] (setting [8]) it was not above 1000 nM; in series [5] (setting [11]), less than 500 nM. Besides, the half-life in series [4] came out at 19.3 min.

In the case of `C[C@@H](Nc1ncnc2nc(Cl)c(C3(C#N)CC3)cc12)c1cccc(C(F)F)c1F` [Compound 200, (R)-1-(7-chloro-4-((1-(3-(difluoromethyl)-2-fluorophenyl)ethyl)amino)pyrido[2,3-d]pyrimidin-6-yl)cyclopropane-1-carbonitrile], the IC50 in series [2] (setting [6]) is not above 1000 nM; in series [2] (setting [9]), less than 500 nM; in series [3] (setting [7]) it was less than 100 nM; in series [3] (setting [10]) it was less than 50 nM; in series [5] (setting [8]) it was not above 1000 nM. The half-life in series [4] turned out to be 154 min.
